Data published in patent US11085056B2, “Transfection complexes and methods of using the same” (MOLECULAR TRANSFER, INC., priority 2015, dated 2021).

What was measured:
HeLa Cells [1] = test: Transfection of HeLa cells with DOTMA/DOPE/peptide and eGFP plasmid, fluorescent plate reader; assay type: cell-based; settings: DOTMA/DOPE 1:1 plus peptide with RRRRRRRRRRRR (SEQ ID NO: 109) at n terminus; EF1Alpha eGFP plasmid; 0.01 mL complex; 42 hours
In short: (§1)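 Cells at 60-70% confluence got DOTMA/DOPE (1:1) mixed with peptides bearing an N-terminal R12 DNA-binding tag, complexed 10 min with EF1α-eGFP plasmid (5 μg/mL in OptiMEM); 0.01 or 0.02 mL complex per well. After 42 h at 37 °C, GFP read by fluorescence plate reader and % transfected cells by microscopy, relative to lipid without peptide.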

C2C12 Cells = test: Transfection of C2C12 cells with DOTMA/DOPE/peptide and eGFP plasmid, fluorescent plate reader; assay type: cell-based, mouse; settings: DOTMA/DOPE 1:1 plus peptide with RRRRRRRRRRRR (SEQ ID NO: 109) at n terminus; EF1Alpha eGFP plasmid; 0.02 mL complex; 42 hours
In short: as §1

some examined cell types = test: Transfection expression and % cells transfected over the no peptide control; assay type: cell-based; settings: on some examined cell types
In short: as §1

NL-1 iPS Cells = test: Transfection of NL-1 iPS cells with DOTMA/DOPE/peptide and eGFP plasmid, fluorescent plate reader; assay type: cell-based; settings: DOTMA/DOPE 1:1 plus peptide with RRRRRRRRRRRR (SEQ ID NO: 109) at n terminus; EF1Alpha eGFP plasmid; 42 hours
HuVec Cells = test: Transfection of HuVec cells with DOTMA/DOPE/peptide and eGFP plasmid, fluorescent plate reader; assay type: cell-based; settings: DOTMA/DOPE 1:1 plus peptide with RRRRRRRRRRRR (SEQ ID NO: 109) at n terminus; EF1Alpha eGFP plasmid; 0.01 mL complex; 42 hours
In short: as §1

Jurkat Cells = test: Transfection of Jurkat cells with DOTMA/DOPE/peptide and eGFP plasmid, fluorescent plate reader; assay type: cell-based; settings: DOTMA/DOPE 1:1 plus peptide with RRRRRRRRRRRR (SEQ ID NO: 109) at n terminus; EF1Alpha eGFP plasmid; 0.02 mL complex; 42 hours
In short: as §1

HeLa Cells [2] = test: Transfection of HeLa cells with DOTMA/SEQ ID NO: 72/peptide compared with Lipofectamine 2000; assay type: cell-based; settings: fusogenic peptide 0.1 mg/mL
In short: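 HeLa cells at 60–70% confluence received 0.01 mL of complexes of EF1Alpha eGFP plasmid (5 μg/mL in OptiMEM) with DOTMA/DOPE (1:1) plus R12-linked peptide, with fusogenic peptide at 0.1 mg/mL final. GFP read by fluorescence plate reader and microscopy (% cells transfected) after 42 h at 37 °C.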

Human Fibroblast Cells = test: Transfection of human fibroblast cells with DOTMA/DOPE/peptide and eGFP plasmid, fluorescent plate reader; assay type: cell-based; settings: DOTMA/DOPE 1:1 plus peptide with RRRRRRRRRRRR (SEQ ID NO: 109) at n terminus; EF1Alpha eGFP plasmid; 0.01 mL complex; 42 hours
In short: as §1

[3] = 0.1 μL of DOTMA/SEQ ID NO: 72/Peptide in well of a 96 well plate
[4] = 0.2 μL of DOTMA/SEQ ID NO: 72/Peptide in well of a 96 well plate
[5] = 0.3 μL of DOTMA/SEQ ID NO: 72/Peptide in well of a 96 well plate
[6] = 0.4 μL of DOTMA/SEQ ID NO: 72/Peptide in well of a 96 well plate

Substance | RF (Relative Fluorescence) of Transfection of HeLa Cells (HeLa Cells [1]) | RF (Relative Fluorescence) of Transfection of C2C12 Cells (C2C12 Cells) | transfection expression and the % cells transfected over the no peptide control (some examined cell types) | RF (Relative Fluorescence) of Transfection of NL-1 iPS Cells (NL-1 iPS Cells) | RF (Relative Fluorescence) of Transfection of HuVec Cells (HuVec Cells) | RF (Relative Fluorescence) of Transfection of Jurkat Cells (Jurkat Cells) | RF (Relative Fluorescence), DOTMA/SEQ ID NO: 72/Peptide, HeLa Cells (HeLa Cells [2]; [3]) | RF (Relative Fluorescence), DOTMA/SEQ ID NO: 72/Peptide, HeLa Cells (HeLa Cells [2]; [4]) | RF (Relative Fluorescence), DOTMA/SEQ ID NO: 72/Peptide, HeLa Cells (HeLa Cells [2]; [5]) | RF (Relative Fluorescence), DOTMA/SEQ ID NO: 72/Peptide, HeLa Cells (HeLa Cells [2]; [6]) | RF (Relative Fluorescence) of Transfection of Human Fibroblast Cells (Human Fibroblast Cells)
358 (GHRGPTGRPGKRGKQGQKGDS; Peptidic transfection agent) [compound 358] | 15132 | 2271 | increased | 21956 | 25398 | 18820 | 12331 | 12683 | 13686 | 11097 | 5665
360 (GDLGRPGRKGRPGPP; Peptidic transfection agent) [compound 360] | 8516 | 2090 | increased | 27572 | 24042 | 16607 | 9946 | 11168 | 10381 | 8995 | 5347
365 (ISRCQVCMKKRH; Peptidic transfection agent) [compound 365] | 36093 | 5390 | increased | 6364 | 14764 | 5298 | 26620 | 43775 | 36054 | 21540 | 5219
367 (TDIPPCPHGWISLWK; Peptidic transfection agent) [compound 367] | 39008 | 16207 | increased | 17545 | 13354 | 4365 | 10427 | 21411 | 23001 | 17529 | 10036
369 (TAIPSCPEGTVPLYS; Peptidic transfection agent) [compound 369] | 14444 | 3322 | increased | 13124 | 6536 | 11085 | 8737 | 16706 | 14880 | 12645 | 7590
375 (LAGSCLPVFSTL; Peptidic transfection agent) [compound 375] | 41076 | 5633 | increased | 5196 | 5542 | 4272 | 22457 | 30891 | 34887 | 29024 | 7305
377 (TAGSCLRRFSTM; Peptidic transfection agent) [compound 377] | 15091 | 1710 | increased | 5474 | 9326 | 6785 | 39115 | 40072 | 32914 | 22457 | 6638
379 (TAGSCLRKF; Peptidic transfection agent) [compound 379] | 27424 | 3189 | increased | 6894 | 14573 | 7711 | 50018 | 47049 | 39036 | 26448 | 8520
381 (TAGSCL; Peptidic transfection agent) [compound 381] | 22652 | 8834 | increased | 9644 | 17542 | 10806 | 34187 | 37463 | 27007 | 20088 | 9953
450 (TAGSCLRKFSCL; Peptidic transfection agent) [compound 450] | 21045 | 3795 | increased | 29856 | 20911 | 8779 | 11962 | 17346 | 12553 | 10241 | 6996
452 (CNYYSNSYSFWLASLNPER; Peptidic transfection agent) [compound 452] | 13888 | 21798 | increased | 10349 | 1841 | 2554 | 6276 | 12671 | 12047 | 10918 | 2779
454 (TGLSCLQRFTTM; Peptidic transfection agent) [compound 454] | 34550 | 9280 | increased | 18100 | 13336 | 8224 | 34033 | 37099 | 27412 | 16023 | 7568
